# Patent publication US20250186437A1, “CARBOLINE COMPOUNDS AND USE THEREOF” (PTC Therapeutics, Inc., priority 2021, published 2025)
# Tested on: MOLM-13 cells
# Experiment: MOLM-13 Cell Proliferation Assay (indicator of DHODH inhibition)
# Assay type: cell-based
# Settings: Homo sapiens, 72 Hours of culture, CellTiter-Glo, no uridine
# Method in brief: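 Proliferation readout via CellTiter-Glo luminescence after 72 h compound treatment (37 °C, 5% CO2, 0.5% DMSO) of MOLM-13 cells seeded at 10^4 per well in RPMI 1640/10% FBS, used as a DHODH-inhibition indicator since these cells rely on de novo pyrimidine synthesis.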
row,Structure (SMILES),IC50 [nM]
1,"FC(F)c1ccnc(N2CCc3c([nH]c4ccc(Cl)cc34)C2c2cnc(N3CCOCC3)nc2)n1 (centres unmarked) [Compound 334, 6-chloro-2-[4-(difluoromethyl)pyrimidin-2-yl]-1-[2-(morpholin-4-yl)pyrimidin-5-yl]-2,3,4,9-tetrahydro-1H-pyrido[3,4-b]indole]",13
2,"OCCOCc1ccc(C2c3[nH]c4cc(F)c(Cl)cc4c3CCN2c2nccc(C(F)(F)F)n2)cc1 (centres unmarked) [Compound 223, 2-[(4-{6-chloro-7-fluoro-2-[4-(trifluoromethyl)pyrimidin-2-yl]-2,3,4,9-tetrahydro-1H-pyrido[3,4-b]indol-1-yl}phenyl)methoxy]ethan-1-ol]",2
3,"FC(F)(F)c1ccnc(N2CCc3c([nH]c4ccc(Cl)cc34)C2c2ccc(-n3cccn3)cc2)n1 (centres unmarked) [Compound 261, 6-chloro-1-[4-(1H-pyrazol-1-yl)phenyl]-2-[4-(trifluoromethyl)pyrimidin-2-yl]-2,3,4,9-tetrahydro-1H-pyrido[3,4-b]indole]",1.2
4,"Cc1nc(N2CCc3c([nH]c4ccc(Cl)cc34)C2c2ccc(N3CCOCC3)nc2)ncc1F (centres unmarked) [Compound 365, 6-chloro-2-(5-fluoro-4-methylpyrimidin-2-yl)-1-[6-(morpholin-4-yl)pyridin-3-yl]-2,3,4,9-tetrahydro-1H-pyrido[3,4-b]indole]",8
5,"FC(F)(F)c1cc(C(F)(F)F)nc(N2CCc3c([nH]c4ccc(-n5nccn5)cc34)C2c2ccc(N3CCOCC3)nc2)n1 (centres unmarked) [Compound 454, 2-[4,6-bis(trifluoromethyl)pyrimidin-2-yl]-1-[6-(morpholin-4-yl)pyridin-3-yl]-6-(2H-1,2,3-triazol-2-yl)-2,3,4,9-tetrahydro-1H-pyrido[3,4-b]indole]",0.7
6,"C[C@H]1CN(c2ncc([C@H]3c4[nH]c5ccc(Cl)cc5c4CCN3c3nc(C(F)(F)F)cc(C(F)(F)F)n3)cn2)CCN1 [Compound 517, (1S)-2-[4,6-bis(trifluoromethyl)pyrimidin-2-yl]-6-chloro-1-{2-[(3S)-3-methylpiperazin-1-yl]pyrimidin-5-yl}-2,3,4,9-tetrahydro-1H-pyrido[3,4-b]indole]",3.2
7,"FC1(F)CN(c2ccnc(N3CCc4c([nH]c5ccc(Cl)cc45)[C@@H]3c3cnc(N4CCOCC4)nc3)n2)C1 [Compound 456, (1S)-6-chloro-2-[4-(3,3-difluoroazetidin-1-yl)pyrimidin-2-yl]-1-[2-(morpholin-4-yl)pyrimidin-5-yl]-2,3,4,9-tetrahydro-1H-pyrido[3,4-b]indole]",17.1
8,"CC(C)c1ccc(C2c3[nH]c4cc(F)c(Cl)cc4c3CCN2c2ncc(C(F)(F)F)cn2)cc1 (centres unmarked) [Compound 99, 6-chloro-7-fluoro-1-[4-(propan-2-yl)phenyl]-2-[5-(trifluoromethyl)pyrimidin-2-yl]-2,3,4,9-tetrahydro-1H-pyrido[3,4-b]indole]",14
9,"N#Cc1nc(N2CCc3c([nH]c4ccc(Cl)cc34)[C@@H]2c2cnc(N3CCOCC3)nc2)ncc1F [Compound 396, 2-{(1S)-6-chloro-1-[2-(morpholin-4-yl)pyrimidin-5-yl]-1,3,4,9-tetrahydro-2H-pyrido[3,4-b]indol-2-yl}-5-fluoropyrimidine-4-carbonitrile]",2.4
10,"FC(F)(F)c1ccnc(N2CCc3c([nH]c4ccc(Cl)c(Br)c34)C2c2ccc(Cl)cc2)n1 (centres unmarked) [Compound 247, 5-bromo-6-chloro-1-(4-chlorophenyl)-2-[4-(trifluoromethyl)pyrimidin-2-yl]-2,3,4,9-tetrahydro-1H-pyrido[3,4-b]indole]",1.8
11,"OCC/C=C/c1ccc(C2c3[nH]c4cc(F)c(Cl)cc4c3CCN2c2nccc(C(F)(F)F)n2)cc1 (centres unmarked) [Compound 167, (3E)-4-(4-{6-chloro-7-fluoro-2-[4-(trifluoromethyl)pyrimidin-2-yl]-2,3,4,9-tetrahydro-1H-pyrido[3,4-b]indol-1-yl}phenyl)but-3-en-1-ol]",1.1
12,"Cc1ccc(C2c3[nH]c4cc(F)c(Cl)cc4c3CCN2c2ncc(Cl)cn2)cc1 (centres unmarked) [Compound 41, 6-chloro-2-(5-chloropyrimidin-2-yl)-7-fluoro-1-(4-methylphenyl)-2,3,4,9-tetrahydro-1H-pyrido[3,4-b]indole]",19.6
13,"Cc1ccc(C2c3[nH]c4cc(F)c(Cl)cc4c3CCN2c2ncc(F)c(C#N)n2)cc1 (centres unmarked) [Compound 175, 2-[6-chloro-7-fluoro-1-(4-methylphenyl)-1,3,4,9-tetrahydro-2H-pyrido[3,4-b]indol-2-yl]-5-fluoropyrimidine-4-carbonitrile]",4.7
14,"Cc1ccc([C@H]2c3[nH]c4ccc(Cl)cc4c3CCN2c2nc(C#N)cc(C(F)(F)F)n2)c(F)c1F [Compound 416, 2-[(1S)-6-chloro-1-(2,3-difluoro-4-methylphenyl)-1,3,4,9-tetrahydro-2H-pyrido[3,4-b]indol-2-yl]-6-(trifluoromethyl)pyrimidine-4-carbonitrile]",2.7

# Further lines, results first:
row,IC50 [nM],Structure (SMILES)
1,0.6,"Cc1nc(N2CCc3c([nH]c4ccc(Cl)cc34)[C@@H]2c2ccc(N3CCOCC3)nc2)nc(C(F)(F)F)n1 [Compound 465, (1S)-6-chloro-2-[4-methyl-6-(trifluoromethyl)-1,3,5-triazin-2-yl]-1-[6-(morpholin-4-yl)pyridin-3-yl]-2,3,4,9-tetrahydro-1H-pyrido[3,4-b]indole]"
2,12,"Cc1ccc(C2c3[nH]c4ccc(F)cc4c3CCN2c2ncnc(C(F)(F)F)n2)c(F)c1F (centres unmarked) [Compound 494, 1-(2,3-difluoro-4-methylphenyl)-6-fluoro-2-[4-(trifluoromethyl)-1,3,5-triazin-2-yl]-2,3,4,9-tetrahydro-1H-pyrido[3,4-b]indole]"
3,2.5,"Cc1nc(N2CCc3c([nH]c4cc(F)c(Cl)cc34)C2c2ccc(/C=C/CCO)cc2)ncc1F (centres unmarked) [Compound 239, (3E)-4-{4-[6-chloro-7-fluoro-2-(5-fluoro-4-methylpyrimidin-2-yl)-2,3,4,9-tetrahydro-1H-pyrido[3,4-b]indol-1-yl]phenyl}but-3-en-1-ol]"
4,0.9,"Cc1ccc(C2c3[nH]c4ccc(Cl)cc4c3CCN2c2nc(C(F)(F)F)cc(C(F)(F)F)n2)cc1 (centres unmarked) [Compound 360, 2-[4,6-bis(trifluoromethyl)pyrimidin-2-yl]-6-chloro-1-(4-methylphenyl)-2,3,4,9-tetrahydro-1H-pyrido[3,4-b]indole]"
5,1.9,"Cc1nc(N2CCc3c([nH]c4ccc(Cl)cc34)C2c2ccc(N3CCOCC3)nc2)nc(C(F)(F)F)n1 (centres unmarked) [Compound 439, 6-chloro-2-[4-methyl-6-(trifluoromethyl)-1,3,5-triazin-2-yl]-1-[6-(morpholin-4-yl)pyridin-3-yl]-2,3,4,9-tetrahydro-1H-pyrido[3,4-b]indole]"
6,0.8,"CSc1nc(N2CCc3c([nH]c4ccc(Cl)cc34)[C@@H]2c2ccc(C)c(F)c2F)nc(C(F)(F)F)n1 [Compound 389, (1S)-6-chloro-1-(2,3-difluoro-4-methylphenyl)-2-[4-(methylsulfanyl)-6-(trifluoromethyl)-1,3,5-triazin-2-yl]-2,3,4,9-tetrahydro-1H-pyrido[3,4-b]indole]"
7,10.6,"CN(C)c1ccc(C2c3[nH]c4cc(F)c(Cl)cc4c3CCN2c2nccc(C(F)(F)F)n2)cc1 (centres unmarked) [Compound 170, 4-{6-chloro-7-fluoro-2-[4-(trifluoromethyl)pyrimidin-2-yl]-2,3,4,9-tetrahydro-1H-pyrido[3,4-b]indol-1-yl}-N,N-dimethylaniline]"
8,0.6,"CN1CCN(c2ccc([C@H]3c4[nH]c5ccc(Cl)cc5c4CCN3c3nc(C(F)(F)F)cc(C(F)(F)F)n3)cn2)CC1 [Compound 481, (1S)-2-[4,6-bis(trifluoromethyl)pyrimidin-2-yl]-6-chloro-1-[6-(4-methylpiperazin-1-yl)pyridin-3-yl]-2,3,4,9-tetrahydro-1H-pyrido[3,4-b]indole]"
9,3.2,"Cc1cc(C)nc(N2CCc3c([nH]c4ccc(Cl)c(F)c34)C2c2ccc(/C=C/CCO)cc2)n1 (centres unmarked) [Compound 242, (3E)-4-{4-[6-chloro-2-(4,6-dimethylpyrimidin-2-yl)-5-fluoro-2,3,4,9-tetrahydro-1H-pyrido[3,4-b]indol-1-yl]phenyl}but-3-en-1-ol]"
10,7.1,"OCc1ccc(C2c3[nH]c4cc(F)c(Cl)cc4c3CCN2c2nccc(C(F)(F)F)n2)cc1 (centres unmarked) [Compound 166, (4-{6-chloro-7-fluoro-2-[4-(trifluoromethyl)pyrimidin-2-yl]-2,3,4,9-tetrahydro-1H-pyrido[3,4-b]indol-1-yl}phenyl)methanol]"
11,1.6,"CSc1nc(N2CCc3c([nH]c4ccc(Cl)cc34)[C@@H]2c2ccc(N3CCN(C)CC3)nc2)nc(C(F)(F)F)n1 [Compound 489, (1S)-6-chloro-1-[6-(4-methylpiperazin-1-yl)pyridin-3-yl]-2-[4-(methylsulfanyl)-6-(trifluoromethyl)-1,3,5-triazin-2-yl]-2,3,4,9-tetrahydro-1H-pyrido[3,4-b]indole]"
12,0.3,"CN1CCN(c2ncc([C@H]3c4[nH]c5ccc(Br)cc5c4CCN3c3nc(C(F)(F)F)cc(C(F)(F)F)n3)cn2)CC1 [Compound 499, (1S)-2-[4,6-bis(trifluoromethyl)pyrimidin-2-yl]-6-bromo-1-[2-(4-methylpiperazin-1-yl)pyrimidin-5-yl]-2,3,4,9-tetrahydro-1H-pyrido[3,4-b]indole]"
13,0.6,"Cc1nc(N2CCc3c([nH]c4ccc(Cl)cc34)C2c2ccc(C)c(F)c2F)nc(C(F)(F)F)n1 (centres unmarked) [Compound 438, 6-chloro-1-(2,3-difluoro-4-methylphenyl)-2-[4-methyl-6-(trifluoromethyl)-1,3,5-triazin-2-yl]-2,3,4,9-tetrahydro-1H-pyrido[3,4-b]indole]"
14,15.3,"Cc1ccc(C2c3[nH]c4cc(F)c(Cl)cc4c3CCN2c2ncc(C(F)(F)F)cn2)cc1 (centres unmarked) [Compound 97, 6-chloro-7-fluoro-1-(4-methylphenyl)-2-[5-(trifluoromethyl)pyrimidin-2-yl]-2,3,4,9-tetrahydro-1H-pyrido[3,4-b]indole]"
15,6.8,"Fc1ccccc1C1c2[nH]c3ccc(Cl)cc3c2CCN1c1nccc(C(F)(F)F)n1 (centres unmarked) [Compound 341, 6-chloro-1-(2-fluorophenyl)-2-[4-(trifluoromethyl)pyrimidin-2-yl]-2,3,4,9-tetrahydro-1H-pyrido[3,4-b]indole]"
